Tests used:
[1] = Selectivity index, ratio of CC50 for cytotoxicity against MDCK cells infected with Influenza A virus A/Anhui/1/2013 (H7N9) to IC50 for antiviral activity against Influenza A virus A/Anhui/1/2013 (H7N9) infected in MDCK cells; assay type: toxicity, cell-based; details: dog; read-out: Ratio CC50/IC50
Influenza A virus [2] = experiment: Antiviral activity against Influenza A virus A/Anhui/1/2013 (H7N9) infected in MDCK cells assessed as inhibition of viral replication; assay type: functional, organism-based
[3] = Cytotoxicity against MDCK cells infected with Influenza A virus A/Puerto Rico/8/34 (H1N1) assessed as reduction in cell viability; assay type: toxicity, cell-based, Canis lupus familiaris; details: dog
[4] = Cytotoxicity against MDCK cells infected with Influenza A virus A/Anhui/1/2013 (H7N9) assessed as reduction in cell viability; assay type: toxicity, cell-based, Canis lupus familiaris; details: dog
[5] = Selectivity index, ratio of CC50 for cytotoxicity against MDCK cells infected with Influenza A virus A/Puerto Rico/8/34 (H1N1) to IC50 for antiviral activity against Influenza A virus A/Puerto Rico/8/34 (H1N1) infected in MDCK cells; assay type: toxicity, cell-based; details: dog; read-out: Ratio CC50/IC50
Influenza A virus [6] = experiment: Antiviral activity against Influenza A virus A/Puerto Rico/8/34 (H1N1) infected in MDCK cells assessed as inhibition of viral replication; assay type: functional, organism-based
Influenza A virus [7] = experiment: Anti-membranotropic activity in Influenza A virus A/Puerto Rico/8/34 (H1N1) infected in chicken erythrocytes assessed as inhibition of hemagglutinin-driven membrane disruption incubated for 30 mins followed by infection in chicken erythrocytes; assay type: functional, organism-based; details: Erythrocyte, DDE = dose-dependent effect

Structure (SMILES)	selectivity ratio [1]	IC50 (Influenza A virus [2]) [µM]	CC50 [3] [µM]	CC50 [4] [µM]	selectivity ratio [5]	IC50 (Influenza A virus [6]) [µM]	Activity (Influenza A virus [7])
CC1(C)[C@@H]2CC[C@@]1(c1nc(-c3cccc(F)c3)no1)C(=O)C2	11	93	> 1280	> 1000	> 231	6	–
CC1(C)[C@@H]2CC[C@@]1(C(=O)O/N=C(\N)Cc1ccc(F)cc1)C(=O)C2	–	–	244	–	< 2	> 126	–
CC1(C)[C@@H]2CC[C@@]1(C(=O)O/N=C(\N)c1ccc(Br)cc1)C(=O)C2	118	3	387	354	31	13	–
CC1(C)[C@@H]2CC[C@@]1(C(=O)O/N=C(\N)c1ccc(F)cc1)C(=O)C2	1	> 94	236	94	29	8	–
CCC(CC)O[C@@H]1C=C(C(=O)O)C[C@H](N)[C@H]1NC(C)=O [OSELTAMIVIR CARBOXYLATE]	> 625	0.16	> 100	> 100	–	0.18	–
CC1(C)[C@@H]2CC[C@@]1(c1nc(-c3ccccc3F)no1)C(=O)C2	–	–	455	–	37	12	–
CC1(C)[C@@H]2CC[C@@]1(c1nc(-c3ccc(Cl)cc3)no1)C(=O)C2	–	–	52	–	2	33	–
CC1(C)[C@@H]2CC[C@@]1(C(=O)O/N=C(\N)Cc1cccc(F)c1)C(=O)C2	–	–	830	–	3	> 318	–
CC1(C)[C@@H]2CC[C@@]1(C(=O)O/N=C(\N)c1ccncc1)C(=O)C2	–	–	846	–	11	78	–
CC1(C)[C@@H]2CC[C@@]1(c1nc(-c3cccnc3)no1)C(=O)C2	1	> 1060	> 1060	1060	> 79	13	Dde
Cc1noc([C@]23CC[C@H](CC2=O)C3(C)C)n1	–	–	> 904	–	–	> 904	–
CC1(C)[C@@H]2CC[C@@]1(c1nc(Cc3ccc(F)cc3)no1)C(=O)C2	–	–	497	–	< 5	> 105	–
CC1(C)[C@@H]2CC[C@@]1(c1nc(-c3ccccc3)no1)C(=O)C2	2	> 117	198	199	37	5	–
C/C(N)=N/OC(=O)[C@]12CC[C@H](CC1=O)C2(C)C	–	–	545	–	3	175	–
CC1(C)[C@@H]2CC[C@@]1(C(=O)O/N=C(\N)Cc1ccc(Cl)cc1)C(=O)C2	–	–	73	–	5	15	–
CN(C)C/C(N)=N/OC(=O)[C@]12CC[C@H](CC1=O)C2(C)C	–	–	433	–	8	52	–
CC1(C)[C@@H]2CC[C@@]1(C(=O)O/N=C(\N)c1ccccn1)C(=O)C2	6	110	751	688	42	18	–
CC1(C)[C@@H]2CC[C@@]1(C(=O)O/N=C(\N)Cc1ccccc1F)C(=O)C2	–	–	877	–	7	124	–
CC(C)c1noc([C@]23CC[C@H](CC2=O)C3(C)C)n1	–	–	897	–	5	188	–
CC1(C)[C@@H]2CC[C@@]1(c1nc(-c3ccncc3)no1)C(=O)C2	3	> 353	1000	1110	40	25	–
CC1(C)[C@@H]2CC[C@@]1(c1nc(Cc3cccc(F)c3)no1)C(=O)C2	3	> 105	411	344	56	7	Dde

Structure (SMILES)	selectivity ratio [1]	IC50 (Influenza A virus [2]) [µM]	CC50 [3] [µM]	CC50 [4] [µM]	selectivity ratio [5]	IC50 (Influenza A virus [6]) [µM]	Activity (Influenza A virus [7])
CC1(C)[C@@H]2CC[C@@]1(c1nc(-c3ccccn3)no1)C(=O)C2	–	–	> 1000	–	–	> 1000	–
CC1(C)[C@@H]2CC[C@@]1(C(=O)O/N=C(\N)c1ccccc1)C(=O)C2	–	–	290	–	5	59	–
CCc1noc([C@]23CC[C@H](CC2=O)C3(C)C)n1	–	–	> 763	–	> 4	193	–
CC1(C)[C@@H]2CC[C@@]1(c1nc(-c3ccc(C(F)(F)F)cc3)no1)C(=O)C2	–	–	32	–	5	7	–
CC(N)C12CC3CC(CC(C3)C1)C2 (configuration not stated) [RIMANTADINE]	7	51	379	–	6	64	–
CN(C)Cc1noc([C@]23CC[C@H](CC2=O)C3(C)C)n1	–	–	> 1190	–	1	913	–
CC1(C)[C@@H]2CC[C@@]1(C(=O)O/N=C(\N)c1ccc(Cl)cc1)C(=O)C2	3	> 30	239	75	17	14	–
CC/C(N)=N/OC(=O)[C@]12CC[C@H](CC1=O)C2(C)C	–	–	807	–	5	162	–
CC1(C)[C@@H]2CC[C@@]1(C(=O)O/N=C(\N)c1ccc(C(F)(F)F)cc1)C(=O)C2	–	–	> 1060	–	> 2	547	–
CC(C)(C)/C(N)=N/OC(=O)[C@]12CC[C@H](CC1=O)C2(C)C	–	–	> 1140	–	1	975	–
CC1(C)[C@@H]2CC[C@@]1(c1nc(-c3ccc(F)cc3)no1)C(=O)C2	7	30	270	203	74	4	–
CC1(C)[C@@H]2CC[C@@]1(c1nc(Cc3ccc(Cl)cc3)no1)C(=O)C2	120	8	> 906	> 906	> 25	36	–
CC1(C)[C@@H]2CC[C@@]1(C(=O)O/N=C(\N)c1ccccc1F)C(=O)C2	–	–	238	–	5	46	–
CC1(C)[C@@H]2CC[C@@]1(C(=O)O/N=C(\N)c1cccnc1)C(=O)C2	3	> 332	> 997	831	> 10	104	–
CC1(C)[C@@H]2CC[C@@]1(c1nc(-c3ccc(Br)cc3)no1)C(=O)C2	–	–	37	–	6	6	–
CC(C)/C(N)=N/OC(=O)[C@]12CC[C@H](CC1=O)C2(C)C	–	–	730	–	14	50	–
CC1(C)[C@@H]2CC[C@@]1(C(=O)O/N=C(\N)c1cccc(F)c1)C(=O)C2	4	21	155	79	26	6	–
CC1(C)[C@@H]2CC[C@@]1(c1nc(Cc3ccc(Br)cc3)no1)C(=O)C2	3	267	> 792	> 800	> 60	13	–
CC(C)(C)c1noc([C@]23CC[C@H](CC2=O)C3(C)C)n1	–	–	1140	–	< 3	> 382	–
CC1(C)[C@@H]2CC[C@@]1(C(=O)O/N=C(\N)Cc1ccc(Br)cc1)C(=O)C2	–	–	46	–	4	12	–
CC1(C)[C@@H]2CC[C@@]1(c1nc(Cc3ccccc3F)no1)C(=O)C2	–	–	394	–	5	78	–

Source: ChEMBL document CHEMBL5131408, “Novel O-acylated amidoximes and substituted 1,2,4-oxadiazoles synthesised from (+)-ketopinic acid possessing potent virus-inhibiting activity against phylogenetically distinct influenza A viruses” (Bioorg Med Chem Lett, 2022)
